Values after ≈ are worked out from the molar mass of the structure shown. Like-named read-outs stand apart in the source and are kept apart here.
Columns and labels:
[1] = tested on: Paecilomyces variotii; assay: Expanded set of filamentous fungi, MIC broth microdilution (CLSI); format: cell-based; conditions: isolate MYA-3630, MIC at 50% inhibition
[2] = tested on: C. krusei; assay: Expanded set of yeasts, MIC broth microdilution (CLSI); format: cell-based; conditions: Pichia kudriavzevii, ATCC6258; isolate ATCC 6258; MIC at 50% inhibition
[3] = tested on: Blastomyces dermatitidis; assay: Expanded set of filamentous fungi, MIC broth microdilution (CLSI); format: cell-based
[4] = tested on: Rhizopus arrhizus; assay: as above; format: cell-based
[5] = tested on: Fusarium oxysporum; assay: as above; format: cell-based; conditions: MIC at 50% inhibition
[6] = tested on: C. glabrata; assay: Expanded set of yeasts, MIC broth microdilution (CLSI); format: cell-based; conditions: Nakaseomyces glabratus, MIC at 50% inhibition
[7] = tested on: C. albicans; assay: as above; format: cell-based; conditions: MIC at 50% inhibition; for MIC50: Candida albicans
[8] = tested on: Candida parapsilosis; assay: as above; format: cell-based; conditions: MIC at 50% inhibition; for MIC50: Lodderomyces parapsilosis
[9] = tested on: Aspergillus flavus; assay: Expanded set of filamentous fungi, MIC broth microdilution (CLSI); format: cell-based; conditions: MIC at 50% inhibition; for MIC50: Aspergillus flavus
[10] = tested on: Staphylococcus aureus (ATCC 43300); assay: Antibacterial MIC, broth microdilution (CLSI); format: cell-based; conditions: Staphylococcus aureus, ATCC43300; read-out: MIC80 S. aureus
[11] = tested on: Fusarium solani; assay: Expanded set of filamentous fungi, MIC broth microdilution (CLSI); format: cell-based; conditions: MIC at 50% inhibition
[12] = tested on: Enterococcus faecalis (ATCC 51299); assay: Antibacterial MIC, broth microdilution (CLSI); format: cell-based; conditions: Enterococcus faecalis, ATCC51299; read-out: MIC80 E. faecalis
[13] = tested on: Escherichia coli (ATCC 25922); assay: Antibacterial MIC, broth microdilution (CLSI); format: cell-based; conditions: Escherichia coli, ATCC25922; read-out: MIC80 E. coli
[14] = tested on: C. guilliiermondii; assay: Expanded set of yeasts, MIC broth microdilution (CLSI); format: cell-based; conditions: MIC at 50% inhibition
[15] = tested on: C. auris; assay: as above; format: cell-based; conditions: MIC at 50% inhibition
[16] = tested on: PolyAU double stranded RNA; assay: Fluorescence intercalator displacement (FID) assay, SYBR-safe probe; conditions: 20 μM compound, 30° C., lower % = stronger binding
Outline: (§1)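 Probe displacement was measured at 30 °C in 1 mM phosphate pH 7.4 containing SybrSafe (12500-fold dilution), 3.76 ng/mL nucleic acid (salmon dsDNA or polyAU dsRNA) and 20 μM compound. Fluorescence loss is normalised between probe-only and probe-plus-nucleic-acid controls.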

[17] = tested on: Genomic double stranded DNA (salmon); assay: as above; conditions: 20 μM compound, 30° C., lower % = stronger binding
Outline: as §1

[18] = tested on: Aspergillus fumigatus; assay: Expanded set of filamentous fungi, MIC broth microdilution (CLSI); format: cell-based
[19] = tested on: Scedosporium spp.; assay: as above; format: cell-based
[20] = tested on: Lomentospora prolificans; assay: as above; format: cell-based; conditions: isolate S2, MIC at 50% inhibition

CNC(=N)CCNC(=O)c1cc(NC(=O)c2cc(NC(=O)c3ccc(/C=C/c4cnc5ccccc5c4)cc3)cn2C)cn1C [Ia27, (E)-N-(3-imino-3-(methylamino)propyl)-1-methyl-4-(1-methyl-4-(4-(2-(quinolin-3-yl)vinyl)benzamido)-1H-pyrrole-2-carboxamido)-1H-pyrrole-2-carboxamide]
MIC50 [1]: 1 to 8 mg/L (≈ 1.66 to 13.3 µM)
MIC50 [2]: ≤ 1 mg/L
MIC50 ([3]; isolate BD1, MIC at 50% inhibition): 1 to 8 mg/L (≈ 1.66 to 13.3 µM)
MIC50 ([3]; isolate BD2, MIC at 50% inhibition): 1 to 8 mg/L (≈ 1.66 to 13.3 µM)
MIC50 ([3]; isolate BD3, MIC at 50% inhibition): 8 to 32 mg/L (≈ 13.3 to 53.1 µM)
MIC50 ([4]; isolate 99-880, MIC at 50% inhibition): ≤ 1 mg/L
MIC50 ([4]; isolate 99-892, MIC at 50% inhibition): ≤ 1 mg/L
MIC50 ([4]; isolate RA3, MIC at 50% inhibition): 1 to 8 mg/L (≈ 1.66 to 13.3 µM)
MIC50 ([5]; Fusarium oxysporum, isolate F2): ≤ 1 mg/L
MIC50 Fusarium oxysporum ([5]; isolate F3): *** (*** means MIC50 <= 1 μg/mL)
MIC50 ([6]; isolate 05-62): ≤ 1 mg/L
MIC50 ([6]; isolate 05-761): ≤ 1 mg/L
MIC50 ([6]; isolate CG3): ≤ 1 mg/L
MIC50 ([7]; isolate CA3): 1 to 8 mg/L (≈ 1.66 to 13.3 µM)
MIC50 ([7]; isolate SC5314): 1 to 8 mg/L (≈ 1.66 to 13.3 µM)
MIC50 C. albicans ([7]; isolate CA90028): ** (** means 1 μg/mL < MIC50 <= 8 μg/mL)
MIC50 ([8]; ATCC22019, isolate ATCC 22019, read-out: MIC50 Candida parapsilosis): 1 to 8 mg/L (≈ 1.66 to 13.3 µM)
MIC50 ([8]; isolate CP1, read-out: MIC50 C. parapsilosis): 1 to 8 mg/L (≈ 1.66 to 13.3 µM)
MIC50 C. parapsilosis ([8]; isolate CP2): ** (** means 1 μg/mL < MIC50 <= 8 μg/mL)
MIC50 C. parapsilosis ([8]; isolate CP3): ** (** means 1 μg/mL < MIC50 <= 8 μg/mL)
MIC50 ([9]; ATCC204304, isolate ATCC 204304): ≤ 1 mg/L
MIC50 ([9]; isolate Aflav2): ≤ 1 mg/L
MIC50 Aspergillus flavus ([9]; isolate Aflav3): *** (*** means MIC50 <= 1 μg/mL)
MIC80 [10]: < 5 µM
MIC50 ([11]; Fusarium solani, isolate F4): ≤ 1 mg/L
MIC50 Fusarium solani ([11]; isolate DI19-284): *** (*** means MIC50 <= 1 μg/mL)
MIC80 [12]: < 5 µM
MIC80 [13]: > 100 µM
MIC50 ([14]; isolate Cgui1): 1 to 8 mg/L (≈ 1.66 to 13.3 µM)
MIC50 C. guilliiermondii ([14]; isolate Cgui2): ** (** means 1 μg/mL < MIC50 <= 8 μg/mL)
MIC50 C. guilliiermondii ([14]; isolate Cgui3): ** (** means 1 μg/mL < MIC50 <= 8 μg/mL)
MIC50 ([15]; Candidozyma auris, isolate DI17-47): 1 to 8 mg/L (≈ 1.66 to 13.3 µM)
MIC50 C. auris ([15]; isolate DI17-46): ** (** means 1 μg/mL < MIC50 <= 8 μg/mL)
MIC50 C. auris ([15]; isolate DI17-48): ** (** means 1 μg/mL < MIC50 <= 8 μg/mL)
% Normalised Fluorescence with polyAU RNA [16]: 17%
% Normalised Fluorescence with gDNA [17]: 13%
MIC50 ([18]; isolate AF293, MIC at 50% inhibition): ≤ 1 mg/L
MIC50 ([18]; isolate DI15-106, MIC at 50% inhibition): ≤ 1 mg/L
MIC50 ([18]; isolate DI15-116, MIC at 50% inhibition): ≤ 1 mg/L
MIC50 ([18]; isolate DI19-187, MIC at 50% inhibition): ≤ 1 mg/L
MIC50 ([18]; isolate DI19-230, MIC at 50% inhibition): ≤ 1 mg/L
MIC50 ([18]; isolate DI19-231, MIC at 50% inhibition): ≤ 1 mg/L
MIC50 ([18]; isolate DI19-232, MIC at 50% inhibition): ≤ 1 mg/L
MIC50 ([18]; isolate DI19-233, MIC at 50% inhibition): ≤ 1 mg/L
MIC50 ([18]; isolate DI19-234, MIC at 50% inhibition): ≤ 1 mg/L
MIC50 ([18]; isolate DI19-236, MIC at 50% inhibition): ≤ 1 mg/L
MIC50 ([18]; isolate DI19-237, MIC at 50% inhibition): ≤ 1 mg/L
MIC50 ([18]; isolate DI20-95, MIC at 50% inhibition): ≤ 1 mg/L
MIC50 ([18]; isolate DI20-103, MIC at 50% inhibition): ≤ 1 mg/L
MIC50 ([19]; isolate S1, MIC at 50% inhibition): ≤ 1 mg/L
MIC50 ([19]; isolate S3, MIC at 50% inhibition): ≤ 1 mg/L
MIC50 [20]: ≤ 1 mg/L

From US20250313546A1, “NUCLEIC ACID BINDERS” (UNIVERSITY OF STRATHCLYDE, priority 2022, published 2025)
